From patent US11384071B2, “Inhibitors of mechanotransduction to treat pain and modulate touch perception” (Max-Delbrück-Centrum für Molekulare Medizin in der …, priority 2016, dated 2022)

Test system: mice with chronic constriction injury
Assay: Chronic constriction injury (CCI) model, paw withdrawal thresholds to von Frey filaments
Format: in vivo, mouse
Conditions: CCI, systemic treatment
Text: In deeply anaesthetized mice using isoflurane delivered in 100% 02 (Univentor 410 Anaesthesia unit; Univentor, Malta), four loose silk (5/0; Catgut GmbH Markneukirchen) ligatures were placed around the sciatic nerve at the level of the right mid-thigh as described previously (Wetzel et al., 2007).
Mice were allowed to habituate to the testing apparatus (acrylic chambers 10×10 cm in size, suspended above a wired mesh grid) one hour prior to behavioral testing. Only once the subject was at rest and not moving, calibrated von-Frey hair monofilaments (Aesthesio® set of 20 monofilaments, Ugo Basil) were applied to the plantar surface of the hind paw in order to deliver target forces from 0.008 grams to 4 grams increasing in an approximately logarithmic scale. A single stimulus indicated by a slight bending of the filament lasted for two seconds unless the mouse withdrew its paw. In order to measure mechanosensitivity the up-and-down method described by Chaplan^13 was adapted as follows: Testing began with a filament delivering a target force of 0.4 g, but filaments were applied three times. A positive response was noted if the subject withdrew the paw to all three filament applications, so that the successively smaller filament was presented next. […] Paw withdrawal thresholds were calculated as median of 23 to 30 determined turning points of the particular force stimuli applied to the subject.
Drug injections of OB-1 or DMSO alone were dissolved in Ringer's solution (in mM: 135 NaCl, 5 KCl, 5 HEPES, 1.8 CaCl2), 1 MgCl2) to make the OB-1 and vehicle solution. Injections were made 3 hours prior to behavioral testing, approximately 20 μl solution, 250 pmol per paw, was injected into the palm with a Hamilton syringe, gauge 33. During the injection procedure, the mouse was anaesthetized with isoflurane (1.5 to 2.5% in 02). The injection procedure lasted around 3 minutes after which the mouse was moved to the home cage for recovery before behavioral testing.
We next interrogated whether local application of OB-1 can ameliorate tactile-evoked pain behavior in neuropathic models. […] We decided to test this idea more directly by testing the effects of local OB-1 on the mechanical sensitivity of Stoml3^−/− mice with CCI. […] Off-target effects are an issue for any biologically active small molecule. We therefore tested the effects of 20 μM OB-1 in a commercially available in vitro pharmacology panel (www.cerep.fr) consisting of 79 receptors and ion channels.

In the case of `NCC1(CC(=O)O)CCCCC1` [gabapentin, reference compound], the tactile allodynia is reported as “reversal of tactile allodynia”.
